# Test results published in patent US12691107B2, “Methods for the treatment and prevention of lung infections caused by gram-positive bacteria, fungus, or virus by administration of tafenoquine” (priority 2020, dated 2026).
# Like-named read-outs stand apart in the source and are kept apart here.
# Legend:
# [1] = tested on: Sporothrix sp.; test: Antifungal MIC (RPMI-1640 microdilution); format: cell-based
# [2] = tested on: Apophysomyces sp.; test: Antifungal MIC (RPMI-1640 microdilution); format: cell-based
# [3] = tested on: P. variotii; test: Antifungal MIC (RPMI-1640 microdilution); format: cell-based; details: Paecilomyces variotii, read-out: MIC 100% inhibition
# [4] = tested on: Saksenaea sp.; test: Antifungal MIC (RPMI-1640 microdilution); format: cell-based
# [5] = tested on: Rhizopus arrhizus; test: Antifungal MIC (RPMI-1640 microdilution); format: cell-based
# [6] = tested on: Streptococcus pneumoniae; test: Antibacterial MIC (broth microdilution); format: cell-based; details: Streptococcus pneumoniae, CA-MHB with 3% LHB
# [7] = tested on: Staphylococcus aureus; test: Antibacterial MIC (broth microdilution); format: cell-based
# [8] = tested on: Aspergillus fumigatus; test: Antifungal MIC (RPMI-1640 microdilution); format: cell-based
# [9] = tested on: Fusarium sp.; test: Antifungal MIC (RPMI-1640 microdilution); format: cell-based
# [10] = tested on: Altenaria sp.; test: Antifungal MIC (RPMI-1640 microdilution); format: cell-based; details: read-out: MIC 100% inhibition
# [11] = tested on: Exserohilum sp.; test: Antifungal MIC (RPMI-1640 microdilution); format: cell-based; details: read-out: MIC 100% inhibition
# [12] = tested on: Curvularia sp.; test: Antifungal MIC (RPMI-1640 microdilution); format: cell-based; details: read-out: MIC 100% inhibition
# [13] = tested on: Aspergillus flavus; test: Antifungal MIC (RPMI-1640 microdilution); format: cell-based
# [14] = tested on: SARS-CoV-2; details: cited from earlier work
structure (smiles),measurement,setting,value
CC[C@@H]([C@H](C)O)n1ncn(-c2ccc(N3CCN(c4ccc(OC[C@@H]5CO[C@@](Cn6cncn6)(c6ccc(F)cc6F)C5)cc4)CC3)cc2)c1=O [Posaconazole],MIC,"[1]; read-out: MIC 100% inhibition, isolate Sporo1",0.06 µg/mL
same,MIC,"[1]; read-out: MIC 100% inhibition, isolate Sporo2",1 µg/mL
same,MIC,"[1]; read-out: MIC 100% inhibition, isolate Sporo3",0.06 µg/mL
same,MIC,"[2]; read-out: MIC 100% inhibition, isolate Apo1",0.06 µg/mL
same,MIC,"[2]; read-out: MIC 100% inhibition, isolate Apo2",≤ 0.03 µg/mL
same,MIC,"[2]; read-out: MIC 100% inhibition, isolate Apo3",0.5 µg/mL
same,MIC,[3]; isolate MYA-3630,≤ 0.03 µg/mL
same,MIC,"[4]; read-out: MIC 100% inhibition, isolate Sak1",≤ 0.03 µg/mL
same,MIC,"[4]; read-out: MIC 100% inhibition, isolate Sak2",0.06 µg/mL
same,MIC,"[4]; read-out: MIC 100% inhibition, isolate Sak3",≤ 0.03 µg/mL
same,MIC,"[5]; read-out: MIC 100% inhibition, isolate 99-880",1 µg/mL
same,MIC,"[5]; read-out: MIC 100% inhibition, isolate 99-892",0.25 µg/mL
same,MIC,"[5]; read-out: MIC 100% inhibition, isolate RAI",0.125 µg/mL
CN[C@H](CC(C)C)C(=O)N[C@H]1C(=O)N[C@@H](CC(N)=O)C(=O)N[C@H]2C(=O)N[C@H]3C(=O)N[C@H](C(=O)N[C@H](C(=O)O)c4cc(O)cc(O)c4-c4cc3ccc4O)[C@H](O)c3ccc(c(Cl)c3)Oc3cc2cc(c3O[C@@H]2O[C@H](CO)[C@@H](O)[C@H](O)[C@H]2O[C@H]2C[C@](C)(N)[C@H](O)[C@H](C)O2)Oc2ccc(cc2Cl)[C@H]1O [Vancomycin],MIC,"[6]; ATCC49619, isolate ATCC 49619",≤ 0.125 µg/mL
same,MIC,[6]; isolate CO314937,≤ 0.125 µg/mL
same,MIC,[6]; isolate MD77773,0.25 µg/mL
same,MIC,[7]; Staphylococcus aureus,1 µg/mL
same,MIC,"[7]; Staphylococcus aureus, ATCC29213",1 µg/mL
same,MIC,[7]; isolate 6229,1 µg/mL
C[C@@H](c1ncncc1F)[C@](O)(Cn1cncn1)c1ccc(F)cc1F [Voriconazole],MIC,"[8]; read-out: MIC 100% inhibition, isolate AF293",1 µg/mL
same,MIC,"[8]; read-out: MIC 100% inhibition, isolate D115-106",> 16 µg/mL
same,MIC,"[8]; read-out: MIC 100% inhibition, isolate D115-116",8 µg/mL
same,MIC,[3],0.125 µg/mL
same,MIC,"[9]; read-out: MIC 100% inhibition, isolate FO1",4 µg/mL
same,MIC,"[9]; read-out: MIC 100% inhibition, isolate FS2",> 16 µg/mL
same,MIC,"[9]; read-out: MIC 100% inhibition, isolate FSI",8 µg/mL
same,MIC,[10],2 µg/mL
same,MIC,[11],0.5 µg/mL
same,MIC,[12],0.5 µg/mL
same,MIC,"[13]; ATCC204304, read-out: MIC 100% inhibition, isolate ATCC 204304",1 µg/mL
same,MIC,"[13]; read-out: MIC 100% inhibition, isolate Aflav2",2 µg/mL
same,MIC,"[13]; read-out: MIC 100% inhibition, isolate Aflav3",1 µg/mL
CCN(CC)CCCC(C)Nc1ccnc2cc(Cl)ccc12 (stereo not drawn) [chloroquine],fold less potent in CALU-3 than in VERO cells,[14],10 fold
